Source: ChEMBL document CHEMBL1275379, “Indazolylpyrazolopyrimidine as highly potent B-Raf inhibitors with in vivo activity” (J Med Chem, 2010)
The source made the active and inactive calls. The rule behind the calls is not given here.

Test system: A-375
Assay: Growth inhibition of human A375 cells after 4 days by MTT assay
Assay type: functional, cell-based
Conditions: A-375, 96 h

Row | SMILES | IC50
1 | CN1C[C@@H]2C[C@H]1CN2c1cc(F)c(-c2ccnc3c(-c4ccc(F)c5[nH]ncc45)c(-c4ccncc4)nn23)c(F)c1 | 17 nM
2 | CCN1C[C@@H]2C[C@H]1CN2c1cc(F)c(-c2ccnc3c(-c4cccc5[nH]ncc45)c(-c4ccncc4)nn23)c(F)c1 | 56 nM
3 | CN1C[C@@H]2C[C@H]1CN2c1c(F)c(F)c(-c2ccnc3c(-c4cccc5[nH]ncc45)c(-c4ccncc4)nn23)c(F)c1F | 70 nM
4 | Fc1cc(N2C[C@@H]3C[C@H]2CN3C2CCC2)cc(F)c1-c1ccnc2c(-c3cccc4[nH]ncc34)c(-c3ccncc3)nn12 | 78 nM
5 | Fc1cc(CN2C[C@@H]3C[C@H]2CO3)ccc1-c1ccnc2c(-c3cccc4[nH]ncc34)c(-c3ccncc3)nn12 | 268 nM
6 | CN1C[C@@H]2C[C@H]1CN2c1cccc(-c2ccnc3c(-c4cccc5[nH]ncc45)c(-c4ccncc4)nn23)c1 | 1400 nM
7 | CN1C[C@@H]2C[C@H]1CN2c1ccc(-c2ccnc3c(-c4cccc5[nH]ncc45)c(-c4ccncc4)nn23)cc1C(F)(F)F | 273 nM
8 | CN1C[C@@H]2C[C@H]1CN2c1ccc(-c2ccnc3c(-c4cccc5[nH]ncc45)c(-c4ccncc4)nn23)c(F)c1F | 107 nM
9 | Fc1cc(CN2C3COCC2COC3)ccc1-c1ccnc2c(-c3cccc4[nH]ncc34)c(-c3ccncc3)nn12 | 304 nM
10 | Fc1cc(CN2C[C@H]3C[C@@H]2CO3)ccc1-c1ccnc2c(-c3cccc4[nH]ncc34)c(-c3ccncc3)nn12 | 78 nM
11 | CN1C[C@@H]2CC[C@H]1CN2c1ccc(-c2ccnc3c(-c4cccc5[nH]ncc45)c(-c4ccncc4)nn23)c(F)c1 | 118 nM
12 | CN1C[C@@H]2CC[C@H]1CN2c1ccc(-c2ccnc3c(-c4cccc5[nH]ncc45)c(-c4ccncc4)nn23)cc1 | 185 nM

More lines, now with the values ahead:

Row | IC50 | SMILES
13 | 25000 nM | CN1C[C@@H]2C[C@H]1CN2c1ccc(-c2ccnc3c(-c4cccc5[nH]ncc45)c(-c4ccncc4)nn23)c2ccccc12
14 | 9480 nM | c1cc(-c2c(-c3ccncc3)nn3c(-c4ccc(CN5C[C@@H]6C[C@H]5CN6)cc4)ccnc23)c2cn[nH]c2c1
15 | 1850 nM | CN(C)c1cc(N2C[C@@H]3C[C@H]2CN3C)ccc1-c1ccnc2c(-c3cccc4[nH]ncc34)c(-c3ccncc3)nn12
16 | 1250 nM | CN1C[C@@H]2C[C@H]1CN2c1c(F)cc(-c2ccnc3c(-c4cccc5[nH]ncc45)c(-c4ccncc4)nn23)cc1F
17 | 945 nM | c1cc(-c2c(-c3ccncc3)nn3c(-c4ccc(CN5C[C@@H]6C[C@H]5CO6)cc4)ccnc23)c2cn[nH]c2c1
18 | 202 nM | CN1C[C@@H]2C[C@H]1CN2c1ccc(-c2ccnc3c(-c4cccc5[nH]ncc45)c(-c4ccncc4)nn23)cc1
19 | 188 nM | Cc1cc(N2C[C@@H]3C[C@H]2CN3C)ccc1-c1ccnc2c(-c3ccc(F)c4[nH]ncc34)c(-c3ccncc3)nn12
20 | 137 nM | Cc1cc(N2C[C@@H]3C[C@H]2CN3C)ccc1-c1ccnc2c(-c3cccc4[nH]ncc34)c(-c3ccncc3)nn12
21 | 89 nM | CC(C)CN1C[C@@H]2C[C@H]1CN2c1cc(F)c(-c2ccnc3c(-c4cccc5[nH]ncc45)c(-c4ccncc4)nn23)c(F)c1
22 | 87 nM | CN1C[C@@H]2C[C@H]1CN2c1cc(F)c(-c2ccnc3c(-c4cccc5[nH]ncc45)c(-c4ccncc4)nn23)cc1F
23 | 77 nM | CN1C[C@@H]2C[C@H]1CN2c1ccc(-c2ccnc3c(-c4cccc(O)c4)c(-c4ccncc4)nn23)cc1
24 | 68 nM | CN1C[C@@H]2C[C@H]1CN2c1ccc(-c2ccnc3c(-c4ccc(F)c5[nH]ncc45)c(-c4ccncc4)nn23)cc1
25 | 55 nM | CC(C)N1C[C@@H]2C[C@H]1CN2c1cc(F)c(-c2ccnc3c(-c4cccc5[nH]ncc45)c(-c4ccncc4)nn23)c(F)c1
26 | 44 nM | CN1C[C@@H]2C[C@H]1CN2c1ccc(-c2ccnc3c(-c4cccc5[nH]ncc45)c(-c4ccncc4)nn23)c(F)c1
27 | 39 nM | CN1C[C@@H]2C[C@H]1CN2c1ccc(-c2ccnc3c(-c4cccc5[nH]ncc45)c(-c4ccncc4)nn23)c(Cl)c1
28 | 33 nM | CN1C[C@@H]2C[C@H]1CN2c1ccc(-c2ccnc3c(-c4ccc(F)c5[nH]ncc45)c(-c4ccncc4)nn23)c(F)c1

Test system: not listed separately
Assay: Half life in nude mouse liver microsomes
Assay type: ADME, Microsome
Conditions: not given

Row | half-life | SMILES
29 | 5 min | Fc1cc(N2C[C@@H]3C[C@H]2CN3C2CCC2)cc(F)c1-c1ccnc2c(-c3cccc4[nH]ncc34)c(-c3ccncc3)nn12
30 | 4 min | CC(C)CN1C[C@@H]2C[C@H]1CN2c1cc(F)c(-c2ccnc3c(-c4cccc5[nH]ncc45)c(-c4ccncc4)nn23)c(F)c1
31 | > 30 min | CN1C[C@@H]2C[C@H]1CN2c1ccc(-c2ccnc3c(-c4cccc5[nH]ncc45)c(-c4ccncc4)nn23)c(F)c1
32 | 17 min | CC(C)N1C[C@@H]2C[C@H]1CN2c1cc(F)c(-c2ccnc3c(-c4cccc5[nH]ncc45)c(-c4ccncc4)nn23)c(F)c1

Test system: not listed separately
Assay: Half life in human liver microsomes
Assay type: ADME, Microsome
Conditions: not given

Row | SMILES | half-life
33 | CCN1C[C@@H]2C[C@H]1CN2c1cc(F)c(-c2ccnc3c(-c4cccc5[nH]ncc45)c(-c4ccncc4)nn23)c(F)c1 | 11 min
34 | Fc1cc(N2C[C@@H]3C[C@H]2CN3C2CCC2)cc(F)c1-c1ccnc2c(-c3cccc4[nH]ncc34)c(-c3ccncc3)nn12 | 3 min

The remaining lines, values ahead:

Row | half-life | SMILES
35 | 3 min | CC(C)CN1C[C@@H]2C[C@H]1CN2c1cc(F)c(-c2ccnc3c(-c4cccc5[nH]ncc45)c(-c4ccncc4)nn23)c(F)c1
36 | 5 min | CC(C)N1C[C@@H]2C[C@H]1CN2c1cc(F)c(-c2ccnc3c(-c4cccc5[nH]ncc45)c(-c4ccncc4)nn23)c(F)c1
37 | 17 min | CN1C[C@@H]2C[C@H]1CN2c1ccc(-c2ccnc3c(-c4cccc5[nH]ncc45)c(-c4ccncc4)nn23)c(F)c1

Test system: Serine/threonine-protein kinase B-raf (Homo sapiens), P15056 [V600E]
Assay: Inhibition of BRAF V600E mutant in human A375 cells assessed as reduction of ERK phosphorylation
Assay type: cell-based
Conditions: A-375

Chain of Serine/threonine-protein kinase B-raf (Homo sapiens), P15056 [V600E] (P15056 whole entry V600E): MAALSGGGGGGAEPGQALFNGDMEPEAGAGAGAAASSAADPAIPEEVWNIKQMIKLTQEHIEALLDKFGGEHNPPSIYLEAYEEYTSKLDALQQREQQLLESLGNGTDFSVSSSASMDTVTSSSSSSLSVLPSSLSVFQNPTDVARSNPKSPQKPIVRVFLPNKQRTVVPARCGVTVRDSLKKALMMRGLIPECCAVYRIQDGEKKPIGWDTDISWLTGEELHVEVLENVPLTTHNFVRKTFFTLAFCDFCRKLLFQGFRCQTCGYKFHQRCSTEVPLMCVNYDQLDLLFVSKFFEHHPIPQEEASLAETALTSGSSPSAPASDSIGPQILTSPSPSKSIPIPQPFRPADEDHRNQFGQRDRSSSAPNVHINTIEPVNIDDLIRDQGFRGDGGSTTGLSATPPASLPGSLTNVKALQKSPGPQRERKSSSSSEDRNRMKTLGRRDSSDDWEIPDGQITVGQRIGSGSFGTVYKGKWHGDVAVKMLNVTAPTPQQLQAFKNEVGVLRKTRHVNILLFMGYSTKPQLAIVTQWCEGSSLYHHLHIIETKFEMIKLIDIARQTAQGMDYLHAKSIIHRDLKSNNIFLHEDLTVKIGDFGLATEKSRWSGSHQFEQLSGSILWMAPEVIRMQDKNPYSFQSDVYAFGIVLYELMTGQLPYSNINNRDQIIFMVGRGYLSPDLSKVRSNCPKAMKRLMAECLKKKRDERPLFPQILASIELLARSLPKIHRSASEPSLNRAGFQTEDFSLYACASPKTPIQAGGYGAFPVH

Row | inhibition | SMILES
38 | Active | CN1C[C@@H]2C[C@H]1CN2c1ccc(-c2ccnc3c(-c4cccc5[nH]ncc45)c(-c4ccncc4)nn23)c(F)c1
39 | Active | CN1C[C@@H]2C[C@H]1CN2c1ccc(-c2ccnc3c(-c4cccc(O)c4)c(-c4ccncc4)nn23)cc1

Biological target: Serine/threonine-protein kinase B-raf (Homo sapiens, UniProt P15056)
Assay: Inhibition of BRAF
Conditions: not given

Chain of Serine/threonine-protein kinase B-raf (P15056 whole entry): as the sequence (P15056 whole entry V600E) above, with E600V counted along it

Row | SMILES | IC50
40 | CN1C[C@@H]2C[C@H]1CN2c1cc(F)c(-c2ccnc3c(-c4ccc(F)c5[nH]ncc45)c(-c4ccncc4)nn23)c(F)c1 | 0.11 nM
41 | CCN1C[C@@H]2C[C@H]1CN2c1cc(F)c(-c2ccnc3c(-c4cccc5[nH]ncc45)c(-c4ccncc4)nn23)c(F)c1 | < 0.32 nM
42 | CN1C[C@@H]2C[C@H]1CN2c1c(F)c(F)c(-c2ccnc3c(-c4cccc5[nH]ncc45)c(-c4ccncc4)nn23)c(F)c1F | 0.35 nM
43 | Fc1cc(N2C[C@@H]3C[C@H]2CN3C2CCC2)cc(F)c1-c1ccnc2c(-c3cccc4[nH]ncc34)c(-c3ccncc3)nn12 | < 0.32 nM
44 | Fc1cc(CN2C[C@@H]3C[C@H]2CO3)ccc1-c1ccnc2c(-c3cccc4[nH]ncc34)c(-c3ccncc3)nn12 | 1.2 nM
45 | CN1C[C@@H]2C[C@H]1CN2c1ccc(-c2ccnc3c(-c4cccc5[nH]ncc45)c(-c4ccncc4)nn23)c(F)c1F | 0.61 nM
46 | CN1C[C@@H]2C[C@H]1CN2c1ccc(-c2ccnc3c(-c4cccc5[nH]ncc45)c(-c4ccncc4)nn23)c(Br)c1 | < 0.32 nM
47 | Fc1cc(CN2C3COCC2COC3)ccc1-c1ccnc2c(-c3cccc4[nH]ncc34)c(-c3ccncc3)nn12 | 0.77 nM
48 | Fc1cc(CN2C[C@H]3C[C@@H]2CO3)ccc1-c1ccnc2c(-c3cccc4[nH]ncc34)c(-c3ccncc3)nn12 | 0.52 nM
49 | CN1C[C@@H]2CC[C@H]1CN2c1ccc(-c2ccnc3c(-c4cccc5[nH]ncc45)c(-c4ccncc4)nn23)c(F)c1 | 0.41 nM
50 | CN1C[C@@H]2CC[C@H]1CN2c1ccc(-c2ccnc3c(-c4cccc5[nH]ncc45)c(-c4ccncc4)nn23)cc1 | 0.71 nM

Results, then the compound that gave them:

Row | IC50 | SMILES
51 | 1 nM | CN1C[C@@H]2C[C@H]1CN2c1ccc(-c2ccnc3c(-c4cccc5[nH]ncc45)c(-c4ccncc4)nn23)c2ccccc12
52 | 2.3 nM | c1cc(-c2c(-c3ccncc3)nn3c(-c4ccc(CN5C[C@@H]6C[C@H]5CN6)cc4)ccnc23)c2cn[nH]c2c1
53 | 1.2 nM | CN1C[C@@H]2C[C@H]1CN2c1ccc(-c2ccnc3c(-c4cccc5[nH]ncc45)c(-c4ccncc4)nn23)cc1
54 | < 0.32 nM | Cc1cc(N2C[C@@H]3C[C@H]2CN3C)ccc1-c1ccnc2c(-c3ccc(F)c4[nH]ncc34)c(-c3ccncc3)nn12
55 | 0.51 nM | Cc1cc(N2C[C@@H]3C[C@H]2CN3C)ccc1-c1ccnc2c(-c3cccc4[nH]ncc34)c(-c3ccncc3)nn12
56 | < 0.32 nM | CC(C)CN1C[C@@H]2C[C@H]1CN2c1cc(F)c(-c2ccnc3c(-c4cccc5[nH]ncc45)c(-c4ccncc4)nn23)c(F)c1
57 | 0.38 nM | CN1C[C@@H]2C[C@H]1CN2c1cc(F)c(-c2ccnc3c(-c4cccc5[nH]ncc45)c(-c4ccncc4)nn23)cc1F
58 | 0.5 nM | CN1C[C@@H]2C[C@H]1CN2c1ccc(-c2ccnc3c(-c4ccc(F)c5[nH]ncc45)c(-c4ccncc4)nn23)cc1
59 | < 0.32 nM | CC(C)N1C[C@@H]2C[C@H]1CN2c1cc(F)c(-c2ccnc3c(-c4cccc5[nH]ncc45)c(-c4ccncc4)nn23)c(F)c1
60 | 0.23 nM | CN1C[C@@H]2C[C@H]1CN2c1ccc(-c2ccnc3c(-c4cccc5[nH]ncc45)c(-c4ccncc4)nn23)c(F)c1
61 | < 0.1 nM | CN1C[C@@H]2C[C@H]1CN2c1ccc(-c2ccnc3c(-c4cccc5[nH]ncc45)c(-c4ccncc4)nn23)c(Cl)c1
62 | < 0.1 nM | CN1C[C@@H]2C[C@H]1CN2c1ccc(-c2ccnc3c(-c4ccc(F)c5[nH]ncc45)c(-c4ccncc4)nn23)c(F)c1
